Results from ChEMBL document CHEMBL5584293, “Discovery and evaluation of novel spiroheterocyclic protective agents via a SIRT1 upregulation mechanism in cisplatin-induced premature ovarian failure” (Bioorg Med Chem, 2024).
The source made the active and inactive calls. The rule behind the calls is not given here.

Assays:
[1] = test system: KGN; assay: Protective effect against cisplatin-induced injury in human KGN cells assessed as cell survival at 5 uM incubated for 48 hrs by MTT assay; format: functional, cell-based
[2] = test system: KGN; assay: Protective effect against cisplatin-induced injury in human KGN cells assessed as cell survival at 25 to 50 uM incubated for 48 hrs by MTT assay; format: functional, cell-based; conditions: dose 25-50 µM
[3] = test system: KGN; assay: Inhibition of cisplatin-induced apoptosis in human KGN cells assessed as increase in Bcl-2 expression at 1 to 10 uM by immunoblot analysis; format: functional, cell-based; conditions: dose 1-10 µM
[4] = test system: Rattus norvegicus; assay: Protective effect against cisplatin-induced damage in Wistar rat assessed as increase in uterine weight at 50 mg/kg, IG qd for 14 days; format: functional, organism-based; conditions: time 14.0 day
[5] = test system: Rattus norvegicus; assay: Protective effect against cisplatin-induced damage in Wistar rat assessed as reduction in vascular congestion in ovaries at 50 mg/kg, IG qd for 14 days by H and E staining based analysis; format: functional, organism-based; conditions: time 14.0 day
[6] = test system: KGN; assay: Inhibition of cisplatin-induced apoptosis in human KGN cells at 5 uM incubated for 36 hrs by Annexin V-FITC/PI staining based analysis (reference value: 53.9 %); format: functional
[7] = test system: Rattus norvegicus; assay: Protective effect against cisplatin-induced damage in Wistar rat assessed as increase in organ indices at 50 mg/kg, IG qd for 14 days; format: functional, organism-based; conditions: time 14.0 day
[8] = test system: KGN; assay: Protective effect against cisplatin-induced injury in human KGN cells assessed as cell survival rate at 5 uM incubated for 48 hrs by MTT assay (reference value: 65 %); format: functional; conditions: read-out: Survival
[9] = test system: KGN; assay: Protective effect against cisplatin-induced injury in human KGN cells harboring siSIRT1 at 2.5 uM incubated for 36 hrs by Western blot analysis; format: functional, cell-based
[10] = test system: KGN; assay: Inhibition of cisplatin-induced apoptosis in human KGN cells assessed as decrease in Bax expression at 1 to 10 uM by immunoblot analysis; format: functional, cell-based; conditions: dose 1-10 µM
[11] = test system: Rattus norvegicus; assay: Protective effect against cisplatin-induced damage in Wistar rat assessed as decrease in atretic follicle numbers in ovaries at 50 mg/kg, IG qd for 14 days by H and E staining based analysis; format: functional, organism-based; conditions: time 14.0 day
[12] = test system: KGN; assay: Protective effect against cisplatin-induced injury in human KGN cells assessed as increase in p-AKT level incubated for 36 hrs by Western blot analysis; format: functional, cell-based; conditions: dose <= 10.0 µM
[13] = test system: KGN; assay: Protective effect against cisplatin-induced injury in human KGN cells assessed as recovery of cell growth at 1 to 10 uM by inverted microscopy; format: functional, cell-based; conditions: dose 1-10 µM
[14] = test system: Rattus norvegicus; assay: Protective effect against cisplatin-induced damage in Wistar rat assessed as increase in ovarian weight at 50 mg/kg, IG qd for 14 days; format: functional, organism-based; conditions: time 14.0 day
[15] = test system: KGN; assay: Protective effect against cisplatin-induced injury in human KGN cells assessed as increase in cell survival incubated for 48 hrs by MTT assay; format: functional, cell-based; conditions: dose 1.25-10 µM
[16] = Toxicity in Wistar rat model of cisplatin-induced damage assessed as body weight loss at 50 mg/kg, IG qd for 7 to 14 days; format: organism-based; conditions: in vivo, po, time 7-14 day
[17] = test system: KGN; assay: Protective effect against cisplatin-induced injury in human KGN cells assessed as recovery of cell numbers at 1 to 10 uM by inverted microscopy; format: functional, cell-based; conditions: dose 1-10 µM
[18] = test system: Rattus norvegicus; assay: Protective effect against cisplatin-induced damage in Wistar rat assessed as increase in sinus follicle numbers in ovaries at 50 mg/kg, IG qd for 14 days by H and E staining based analysis; format: functional, organism-based; conditions: time 14.0 day
[19] = test system: KGN; assay: Protective effect against cisplatin-induced injury in human KGN cells assessed as increase in SIRT1 level incubated for 36 hrs by Western blot analysis; format: functional, cell-based; conditions: dose <= 10.0 µM
[20] = test system: Rattus norvegicus; assay: Protective effect against cisplatin-induced damage in Wistar rat assessed as increase in serum E2 level at 50 mg/kg, IG qd for 14 days by ELISA; format: functional, organism-based; conditions: time 14.0 day
[21] = test system: Rattus norvegicus; assay: Protective effect against cisplatin-induced damage in Wistar rat assessed as increase in primordial follicle numbers in ovaries at 50 mg/kg, IG qd for 14 days by H and E staining based analysis; format: functional, organism-based; conditions: time 14.0 day
[22] = test system: KGN; assay: Protective effect against cisplatin-induced injury in human KGN cells assessed as recovery of cellular disruption at 1 to 10 uM by inverted microscopy; format: functional, cell-based; conditions: dose 1-10 µM
[23] = test system: Rattus norvegicus; assay: Protective effect against cisplatin-induced damage in Wistar rat assessed as improvement in ovarian structure at 50 mg/kg, IG qd for 14 days by H and E staining based analysis; format: functional, organism-based; conditions: time 14.0 day
[24] = test system: Rattus norvegicus; assay: Protective effect against cisplatin-induced damage in Wistar rat assessed as decrease in uterine wall thinning at 50 mg/kg, IG qd for 14 days by H and E staining based analysis; format: functional, organism-based; conditions: time 14.0 day
[25] = test system: KGN; assay: Inhibition of cisplatin-induced apoptosis in human KGN cells at 10 uM incubated for 36 hrs by Annexin V-FITC/PI staining based analysis (reference value: 53.9 %); format: functional
[26] = test system: KGN; assay: Inhibition of cisplatin-induced apoptosis in human KGN cells at 1 uM incubated for 36 hrs by Annexin V-FITC/PI staining based analysis (reference value: 53.9 %); format: functional
[27] = test system: KGN; assay: Cytotoxicity against human KGN cells at 1.25 to 10 uM incubated for 48 hrs by MTT assay; format: toxicity, cell-based; conditions: dose 1.25-10 µM
[28] = test system: KGN; assay: Protective effect against cisplatin-induced injury in human KGN cells assessed as increase in serum E2 level at 1 to 10 uM by ELISA; format: functional, cell-based; conditions: dose 1-10 µM
[29] = test system: KGN; assay: Protective effect against cisplatin-induced injury in human KGN cells assessed as recovery of cellular suspension at 1 to 10 uM by inverted microscopy; format: functional, cell-based; conditions: dose 1-10 µM
[30] = test system: Rattus norvegicus; assay: Protective effect against cisplatin-induced damage in Wistar rat assessed as increase in growing follicle numbers in ovaries at 50 mg/kg, IG qd for 14 days by H and E staining based analysis; format: functional, organism-based; conditions: time 14.0 day
[31] = Cytotoxicity against rat NRK cells assessed as cell survival rate at 50 uM incubated for 48 hrs by MTT assay relative to control; format: toxicity, cell-based; conditions: read-out: Survival
[32] = Cytotoxicity against human PDL cells assessed as cell survival rate at 50 uM incubated for 48 hrs by MTT assay relative to control; format: toxicity, cell-based; conditions: read-out: Survival
[33] = Cytotoxicity against human MIHA cells assessed as cell survival rate at 50 uM incubated for 48 hrs by MTT assay relative to control; format: toxicity, cell-based; conditions: read-out: Survival
[34] = Cytotoxicity against human MIHA cells assessed as cell viability at 50 uM incubated for 48 hrs by MTT assay; format: toxicity, cell-based
[35] = test system: NRK; assay: Cytotoxicity against rat NRK cells assessed as cell viability at 50 uM incubated for 48 hrs by MTT assay; format: toxicity, cell-based
[36] = Cytotoxicity against human PDL cells assessed as cell viability at 50 uM incubated for 48 hrs by MTT assay; format: toxicity, cell-based
[37] = test system: KGN; assay: Protective effect against cisplatin-induced injury in human KGN cells assessed as cell survival rate at 5 uM incubated for 48 hrs by MTT assay (Rvb ~ 60 %); format: functional; conditions: read-out: Survival

COc1cc(/C=C2\CCC[C@@]3(C2=O)[C@@H](c2cc(OC)cc(OC)c2)C(C)N[C@@]32C(=O)c3cccc4cccc2c34)cc(OC)c1 (some centres not stated)
Activity [1]: inactive
Activity [2]: Active

COc1ccc(/C=C2\CCC[C@@]3(C2=O)[C@@H](c2ccc(OC)cc2)C(C)N[C@@]32C(=O)c3cccc4cccc2c34)cc1 (some centres not stated)
Activity [1]: inactive
Activity [2]: Active

CC1N[C@@]2(C(=O)c3cccc4cccc2c34)[C@@]2(CCC/C(=C\c3ccc(F)cc3)C2=O)[C@H]1c1ccc(F)cc1 (some centres not stated)
Activity [1]: Active
Activity [2]: Active

COc1ccc(/C=C2\CCC[C@@]3(C2=O)[C@@H](c2ccc(OC)c(OC)c2)C(C)N[C@@]32C(=O)c3cccc4cccc2c34)cc1OC (some centres not stated)
Activity [2]: Active
inhibition [3]: Active
Activity [4]: Active
Activity [5]: Active
inhibition at 5 µM [6]: 21.1%
Activity [7]: Active
viability at 5 µM [8]: 94%
Activity [9]: inactive
inhibition [10]: Active
Activity [11]: Active
Activity [12]: Dose-Dependent Effect
Activity [13]: Active
Activity [14]: Active
Activity [15]: Dose-Dependent Effect
Activity [16]: Non-Toxic
Activity [17]: Active
Activity [18]: Active
Activity [19]: Dose-Dependent Effect
Activity [20]: Active
Activity [21]: Active
Activity [22]: Active
Activity [23]: Active
Activity [24]: Active
inhibition at 10 µM [25]: 27.8%
inhibition at 1 µM [26]: 8.6%
Activity [27]: Non-Toxic
Activity [28]: Active
Activity [29]: Active
Activity [30]: Active

CN1C[C@H](c2ccccc2)[C@]2(CCC/C(=C\c3ccccc3)C2=O)[C@]12C(=O)c1cccc3cccc2c13
viability at 48 h, 50 µM [31]: 94%
viability at 48 h, 50 µM [32]: 97.5%
viability at 48 h, 50 µM [33]: 89.5%

CC1N[C@@]2(C(=O)c3cccc4cccc2c34)[C@@]2(CCC/C(=C\c3ccccc3F)C2=O)[C@H]1c1ccccc1F (some centres not stated)
Activity [1]: Active
Activity [2]: Active

CN1C[C@H](c2ccccc2)[C@]2(CN(C(=O)OC(C)(C)C)C/C(=C\c3ccccc3)C2=O)[C@]12C(=O)Nc1ccccc12
Activity [34]: Non-Toxic
Activity [35]: Non-Toxic
Activity [36]: Non-Toxic

CN1C[C@H](c2ccccc2)[C@]2(CCC/C(=C\c3ccccc3)C2=O)[C@]12C(=O)Nc1ccc(Cl)cc12
Activity [34]: Non-Toxic
Activity [35]: Non-Toxic
Activity [36]: Non-Toxic

CC1N[C@@]2(C(=O)c3cccc4cccc2c34)[C@@]2(CCC/C(=C\c3ccccc3)C2=O)[C@H]1c1ccccc1 (some centres not stated)
viability at 5 µM [37]: 75.3%

CN1C[C@H](c2ccccc2)[C@]2(CCC/C(=C\c3ccccc3)C2=O)[C@]12C(=O)Nc1ccccc12
Activity [34]: Non-Toxic
Activity [35]: Non-Toxic
Activity [36]: Non-Toxic

CN1C[C@H](c2ccccc2)[C@H](C(=O)/C=C/c2ccccc2)[C@]12C(=O)Nc1ccccc12
Activity [34]: Toxic
Activity [35]: Toxic
Activity [36]: Toxic

CN1C[C@H](c2ccccc2)[C@]2(COC/C(=C\c3ccccc3)C2=O)[C@]12C(=O)Nc1ccccc12
Activity [34]: Non-Toxic
Activity [35]: Non-Toxic
Activity [36]: Non-Toxic

CN1C[C@H](c2ccccc2)[C@]2(COC/C(=C\c3ccccc3)C2=O)[C@]12C(=O)Nc1ccc(F)cc12
Activity [34]: Non-Toxic
Activity [35]: Non-Toxic
Activity [36]: Non-Toxic

CN1C[C@H](c2ccccc2)[C@H](C(=O)/C=C/c2ccccc2)[C@]12C(=O)Nc1ccc(F)cc12
Activity [34]: Toxic
Activity [35]: Toxic
Activity [36]: Toxic
